Columns and labels:
RCC4 cells = test: XTT assay in VHL-deficient RCC4 cells; format: cell-based; details: Homo sapiens, 96 h, XTT assay, VHL-deficient RCC4 cells, four days
Description: (§1) Cell Viability and XTT assays. For cell viability, 100,000 cells were plated in a 12-well plate. The following day, 1.25 μM STF-62247 was added in the presence or absence of 1 mM 3-MA for 24 hours at 37° C. Cells were trypsinized and counted by trypan blue exclusion. For XTT assays, 5000 RCC4 with and without VHL cells or 2,500 SN12C with and without VHL shRNA cells were plated in 96-well plates. The following day, vehicle (DMSO), STF-62247 or each of 19 analogs were added to media by serial dilution. Four days later, the media was aspirated and XTT solution containing 0.3 mg/ml of XTT (Sigma Chemical Co) in Phenol Red-free media, 20% FCS and 2.65 mg/ml N-methyl dibenzopyrazine methyl sulfate (PMS) was added to the cells and incubated at 37° C. for 1-2 hours. Metabolism of XTT was quantified by measuring the absorbance at 450 nm on a plate reader.

RCC4/VHL cells = test: XTT assay, RCC4/VHL versus RCC4 cells (selectivity ratio); format: cell-based; details: selectivity ratio, IC50 in RCC4/VHL cells/IC50 in RCC4 cells
Description: as §1
A. RCC4 and RCC4/VHL were treated with 1.25 μM of each 19 analogs for 20 hours and the presence of vacuoles was examined under light microscopy. B. Western blot for LC3 after treatment with each compound. Tubulin was used as loading control. Ratio is the relative from the IC50 in RCC4/VHL cells/IC50 in RCC4 cells. C. Acidic vesicle organelles (AVO) measured by FACS analysis in cells treated with 1.25 μM of STF-62247 or with compounds 21, 15, 25, 47, and 53 and stained with acridine orange.

SMILES | IC50 (RCC4 cells; Table 2) [µM] | Ratio (RCC4/VHL cells; Table 2) | IC50 (RCC4 cells; Table 1) [µM] | Ratio (RCC4/VHL cells; Table 1)
COc1cc(-c2csc(Nc3cccc(C)c3)n2)ccn1 [Compound 141, N-{4-[2-(Methyloxy)-4-pyridinyl]-1,3-thiazol-2-yl}-N-(3-methylphenyl)amine] | 28.7 | 1.2 |  | 
Cc1cccc(Nc2nc(-c3ccncc3)c(C)s2)c1 [Compound 71, 5-Methyl-N-(3-methylphenyl)-4-(4-pyridinyl)-1,3-thiazol-2-amine] |  |  | 10 | >4
Cc1ccc(Nc2nc(-c3ccncc3)c(CO)s2)cc1 [Compound 75, [2-[(4-Methylphenyl)amino]-4-(4-pyridinyl)-1,3-thiazol-5-yl]methanol] |  |  | 14 | 1.2
Cc1cccc(Nc2nc(-c3cccnc3)cs2)c1 [Compound 65, N-(3-Methylphenyl)-4-(3-pyridinyl)-1,3-thiazol-2-amine] |  |  | > 40 | 
Cc1cccc(Nc2nc(-c3ccnc(Br)c3)cs2)c1 [Compound 154, 4-(2-Bromo-4-pyridinyl)-N-(3-methylphenyl)-1,3-thiazol-2-amine] | 3.9 | >10 |  | 
Cc1cccc(Nc2nc(-c3ccncc3)c(CCCO)s2)c1 [Compound 81, 3-[2-[(3-Methylphenyl)amino]-4-(4-pyridinyl)-1,3-thiazol-5-yl]-1-propanol] |  |  | 3.6 | 3.7
CN(C)CCc1ccc(Nc2nc(-c3ccncc3)cs2)cc1 [Compound 36, N-{4-[2-(Dimethylamino)ethyl]phenyl}-4-(4-pyridinyl)-1,3-thiazol-2-amine] |  |  | 50 | 1.2
Cc1cccc(Nc2nc(-c3ccnc(CCCO)c3)cs2)c1 [Compound 162, 3-(4-{2-[(3-Methylphenyl)amino]-1,3-thiazol-4-yl}-2-pyridinyl)-1-propanol] | 5.2 | >7.7 |  | 
Cc1cccc(Nc2nc(-c3ccncc3)c(CO)s2)c1 [Compound 74, [2-[(3-Methylphenyl)amino]-4-(4-pyridinyl)-1,3-thiazol-5-yl]methanol] |  |  | 7 | 2.4
c1ccc(Nc2nc(-c3ccncc3)cs2)cc1 [Compound 3, N-Phenyl-4-(4-pyridinyl)-1,3-thiazol-2-amine] |  |  | 7 | >10
CCc1cccc(Nc2nc(-c3ccncc3)cs2)c1 [Compound 7, N-(3-Ethylphenyl)-4-(4-pyridinyl)-1,3-thiazol-2-amine] |  |  | 2.5 | 9.6
Clc1ccccc1Nc1nc(-c2ccncc2)cs1 [Compound 115, N-[2-Chlorophenyl]-4-(4-pyridinyl)-1,3-thiazol-2-amine] |  |  | 27.6 | >1.4
Oc1ccc(Nc2nc(-c3cccnc3)cs2)cc1 [Compound 66, 4-{[4-(3-Pyridinyl)-1,3-thiazol-2-yl]amino}phenol] |  |  | > 40 | 
Cc1cccc(Nc2nc(-c3ccnc(F)c3)cs2)c1 [Compound 149, 4-(2-Fluoro-4-pyridinyl)-N-(3-methylphenyl)-1,3-thiazol-2-amine] | 4.5 | >8.9 |  | 
O=P(O)(O)Oc1ccc(Nc2nc(-c3ccncc3)cs2)cc1 [Compound 41, 4-{[4-(4-Pyridinyl)-1,3-thiazol-2-yl]amino}phenyl Dihydrogen Phosphate] |  |  | 3 | 6.3
Fc1ccc(Nc2nc(-c3ccncc3)cs2)cc1 [Compound 33, N-(4-Fluorophenyl)-4-(4-pyridinyl)-1,3-thiazol-2-amine] |  |  | 6 | >7
Cc1cccc(Nc2nc(-c3ccncc3[N+](=O)[O-])cs2)c1 [Compound 181] | 8.2 | 4.1 |  | 
COc1ccccc1Nc1nc(-c2ccncc2)cs1 [Compound 109, N-(2-Methoxyphenyl)-4-(4-pyridinyl)-1,3-thiazol-2-amine] |  |  | 33.4 | >1.2
Cc1sc(Nc2ccc3c(c2)CCC3)nc1-c1ccncc1 [Compound 72, N-(2,3-Dihydro-1H-inden-5-yl)-5-methyl-4-(4-pyridinyl)-1,3-thiazol-2-amine] |  |  | 12 | 1.5
O=P(O)(O)Oc1cccc(Nc2nc(-c3ccncc3)cs2)c1 [Compound 39, 3-{[4-(4-Pyridinyl)-1,3-thiazol-2-yl]amino}phenyl Dihydrogen Phosphate] |  |  | 29 | 1.1
Cc1cccc(Nc2nc(-c3ccnc4ccccc34)cs2)c1 [Compound 192, N-(3-Methylphenyl)-4-(4-quinolinyl)-1,3-thiazol-2-amine] | 12.3 | 1.6 |  | 

SMILES | IC50 (RCC4 cells; Table 2) [µM] | Ratio (RCC4/VHL cells; Table 2) | IC50 (RCC4 cells; Table 1) [µM] | Ratio (RCC4/VHL cells; Table 1)
Cc1ccc(Nc2nc(-c3ccncc3)cs2)cc1O [Compound 49, 2-Methyl-5-{[4-(4-pyridinyl)-1,3-thiazol-2-yl]amino}phenol] |  |  | 12 | 4.6
Clc1ccc(Nc2nc(-c3ccncc3)cs2)cc1 [Compound 31, N-(4-Chlorophenyl)-4-(4-pyridinyl)-1,3-thiazol-2-amine] |  |  | 38 | >2
Oc1ccccc1Nc1nc(-c2ccncc2)cs1 [Compound 107, 2-{[4-(4-Pyridinyl)-1,3-thiazol-2-yl]amino}phenol] |  |  | 12.8 | >3.1
Cc1cccc(Nc2nc(-c3ccncc3F)cs2)c1 [Compound 170, 4-(3-Fluoro-4-pyridinyl)-N-(3-methylphenyl)-1,3-thiazol-2-amine] | 2 | >20 |  | 
COc1ccc(Nc2nc(-c3ccncc3)cs2)cc1OC [Compound 55, N-(3,4-Dimethoxyphenyl)-4-(4-pyridinyl)-1,3-thiazol-2-amine] |  |  | 24 | 1.9
Cc1cccc(Nc2nc(-c3ccnc(C#CCO)c3)cs2)c1 [Compound 161, 3-(4-{2-[(3-Methylphenyl)amino]-1,3-thiazol-4-yl}-2-pyridinyl)-2-propyn-1-ol] | 9.3 | 1.6 |  | 
CC(=O)Nc1cnccc1-c1csc(Nc2cccc(C)c2)n1 [Compound 183] | 33.3 | 1.0 |  | 
Cc1cccc(Nc2nc(-c3ccnc(Cl)c3)cs2)c1 [Compound 150, 4-(2-Chloro-4-pyridinyl)-N-(3-methylphenyl)-1,3-thiazol-2-amine] | 2.2 | 3.8 |  | 
Cc1cc(C)cc(Nc2nc(-c3ccncc3)cs2)c1 [Compound 45, N-(3,5-Dimethylphenyl)-4-(4-pyridinyl)-1,3-thiazol-2-amine] |  |  | 4.5 | >9
Cc1ccc(Nc2nc(-c3ccncc3)cs2)cc1C [Compound 43, N-(3,4-Dimethylphenyl)-4-(4-pyridinyl)-1,3-thiazol-2-amine] |  |  | 6.5 | 6.4
CC(C)c1cccc(Nc2nc(-c3ccncc3)cs2)c1 [Compound 9, N-(3-Isopropylphenyl)-4-(4-pyridinyl)-1,3-thiazol-2-amine] |  |  | 17 | 1.4
Oc1ccc(Nc2nc(-c3ccccn3)cs2)cc1 [Compound 69, 4-{[4-(2-Pyridinyl)-1,3-thiazol-2-yl]amino}phenol] |  |  | 36 | 0.7
OCc1sc(Nc2ccccc2)nc1-c1ccncc1 [Compound 73, [2-(Phenylamino)-4-(4-pyridinyl)-1,3-thiazol-5-yl]methanol] |  |  | 30 | >1.3
CC(=O)c1ccc(Nc2nc(-c3ccncc3)cs2)cc1 [Compound 131, 1-(4-{[4-(4-Pyridinyl)-1,3-thiazol-2-yl]amino}phenyl)ethanone] |  |  | 3.8 | 3.1
C#Cc1cc(-c2csc(Nc3cccc(C)c3)n2)ccn1 [Compound 159, 4-(2-Ethynyl-4-pyridinyl)-N-(3-methylphenyl)-1,3-thiazol-2-amine] | 17.8 | >2.2 |  | 
Cc1cccc(Nc2nc(-c3ccncc3)c(CN3CCOCC3)s2)c1 [Compound 86, N-(3-Methylphenyl)-5-(4-morpholinylmethyl)-4-(4-pyridinyl)-1,3-thiazol-2-amine] |  |  | 2.5 | 4.8
Clc1ccc(Nc2nc(-c3ccncc3)cs2)cc1Cl [Compound 61, N-(3,4-Dichlorophenyl)-4-(4-pyridinyl)-1,3-thiazol-2-amine] |  |  | 13.5 | >3
Cc1cccc(Nc2nc(-c3ccncc3CCCO)cs2)c1 [Compound 187, 3-(4-{2-[(3-Methylphenyl)amino]-1,3-thiazol-4-yl}-3-pyridinyl)-1-propanol] | 6.8 | >5.9 |  | 
C#Cc1cnccc1-c1csc(Nc2cccc(C)c2)n1 [Compound 184, 4-(3-Ethynyl-4-pyridinyl)-N-(3-methylphenyl)-1,3-thiazol-2-amine] | 1.35 | 4.4 |  | 
c1cc(-c2csc(Nc3ccc4c(c3)CCC4)n2)ccn1 [Compound 47, N-(2,3-Dihydro-1H-inden-5-yl)-4-(4-pyridinyl)-1,3-thiazol-2-amine] |  |  | 2 | 10
FC(F)(F)c1ccc(Nc2nc(-c3ccncc3)cs2)cc1 [Compound 133, 4-(4-Pyridinyl)-N-[4-(trifluoromethyl)phenyl]-1,3-thiazol-2-amine] |  |  | > 40 | 
